For three compounds, Emax results are on record in paper PMC7368294 (Proceedings of the National Academy of Sciences of the …, 2020).

Like-named read-outs stand apart in the source and are kept apart here.

The target in assay [1] is T1, Btα1/Btα8/Btβ1 nAChR (Bombus terrestris, UniProt A0A9B0BGM1+A0A9B0F4H3+A0A9B2JDZ7).
T1 sequence (A0A9B0F4H3 44-615): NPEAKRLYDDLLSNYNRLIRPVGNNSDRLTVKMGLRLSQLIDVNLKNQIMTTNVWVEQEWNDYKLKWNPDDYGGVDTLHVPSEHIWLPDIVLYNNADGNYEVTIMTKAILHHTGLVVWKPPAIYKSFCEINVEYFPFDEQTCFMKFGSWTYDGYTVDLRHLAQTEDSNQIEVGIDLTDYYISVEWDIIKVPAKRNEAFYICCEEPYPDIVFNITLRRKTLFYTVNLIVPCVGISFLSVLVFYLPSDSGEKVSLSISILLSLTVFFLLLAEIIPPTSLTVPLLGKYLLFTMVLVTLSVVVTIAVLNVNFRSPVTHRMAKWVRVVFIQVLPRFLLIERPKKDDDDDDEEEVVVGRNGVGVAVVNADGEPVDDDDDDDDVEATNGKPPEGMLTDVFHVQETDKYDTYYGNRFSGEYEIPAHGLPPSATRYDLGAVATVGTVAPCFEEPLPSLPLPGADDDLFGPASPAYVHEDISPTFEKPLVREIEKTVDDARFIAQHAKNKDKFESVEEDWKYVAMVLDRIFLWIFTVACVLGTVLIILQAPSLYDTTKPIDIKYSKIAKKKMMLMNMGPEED
T1 sequence (A0A9B2JDZ7 22-535): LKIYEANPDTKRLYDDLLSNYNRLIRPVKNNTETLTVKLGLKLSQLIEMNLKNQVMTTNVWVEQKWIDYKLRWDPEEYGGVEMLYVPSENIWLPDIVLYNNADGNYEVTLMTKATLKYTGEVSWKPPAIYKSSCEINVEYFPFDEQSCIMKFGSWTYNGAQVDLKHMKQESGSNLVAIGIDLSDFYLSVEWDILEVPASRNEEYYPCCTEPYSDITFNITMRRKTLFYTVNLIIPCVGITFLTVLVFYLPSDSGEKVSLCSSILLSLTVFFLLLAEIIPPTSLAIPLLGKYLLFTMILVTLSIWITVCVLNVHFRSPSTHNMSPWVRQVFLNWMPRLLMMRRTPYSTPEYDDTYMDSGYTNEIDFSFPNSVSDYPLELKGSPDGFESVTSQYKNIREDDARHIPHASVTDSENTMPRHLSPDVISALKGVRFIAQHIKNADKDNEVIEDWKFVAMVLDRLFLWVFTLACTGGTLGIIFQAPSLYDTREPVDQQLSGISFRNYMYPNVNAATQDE
T1 sequence (A0A9B0BGM1 19-519): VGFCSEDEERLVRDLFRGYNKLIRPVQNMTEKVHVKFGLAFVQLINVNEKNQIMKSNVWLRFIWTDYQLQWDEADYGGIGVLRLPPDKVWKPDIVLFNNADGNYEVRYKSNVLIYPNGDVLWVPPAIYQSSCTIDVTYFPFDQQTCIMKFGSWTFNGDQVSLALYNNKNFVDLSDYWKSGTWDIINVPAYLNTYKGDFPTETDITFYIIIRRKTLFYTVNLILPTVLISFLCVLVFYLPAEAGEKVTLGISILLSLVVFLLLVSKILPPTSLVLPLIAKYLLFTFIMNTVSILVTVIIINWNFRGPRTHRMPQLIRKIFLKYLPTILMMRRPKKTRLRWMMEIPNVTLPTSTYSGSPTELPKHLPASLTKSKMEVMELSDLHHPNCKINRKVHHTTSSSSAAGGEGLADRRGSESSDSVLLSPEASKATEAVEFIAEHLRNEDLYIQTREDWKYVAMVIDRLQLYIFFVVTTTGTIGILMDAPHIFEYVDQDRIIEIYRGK
Kind of assay: cell-based. Set-up: species or system Xenopus laevis oocytes. The conditions noted are these: Oocyte.

Assay [2] concerns the target T2, Dα1/Dβ1 nAChR (Drosophila melanogaster, UniProt P04755+P09478).
T2 sequence (P09478 22-567): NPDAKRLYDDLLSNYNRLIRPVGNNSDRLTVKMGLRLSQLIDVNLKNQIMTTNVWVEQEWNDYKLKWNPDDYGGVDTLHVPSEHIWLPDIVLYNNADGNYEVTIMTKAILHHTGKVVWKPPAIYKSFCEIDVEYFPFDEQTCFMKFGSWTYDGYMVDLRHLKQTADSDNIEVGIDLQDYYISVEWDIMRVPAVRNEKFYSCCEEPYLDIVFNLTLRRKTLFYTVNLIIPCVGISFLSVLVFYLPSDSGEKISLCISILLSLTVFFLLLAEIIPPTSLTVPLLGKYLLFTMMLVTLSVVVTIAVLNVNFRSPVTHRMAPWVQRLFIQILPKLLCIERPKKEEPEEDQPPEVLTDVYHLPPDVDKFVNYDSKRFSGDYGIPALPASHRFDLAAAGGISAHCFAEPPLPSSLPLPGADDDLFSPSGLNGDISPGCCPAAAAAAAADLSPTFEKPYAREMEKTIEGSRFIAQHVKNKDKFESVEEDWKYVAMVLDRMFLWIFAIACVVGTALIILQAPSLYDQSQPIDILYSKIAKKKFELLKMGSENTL
T2 sequence (P04755 25-521): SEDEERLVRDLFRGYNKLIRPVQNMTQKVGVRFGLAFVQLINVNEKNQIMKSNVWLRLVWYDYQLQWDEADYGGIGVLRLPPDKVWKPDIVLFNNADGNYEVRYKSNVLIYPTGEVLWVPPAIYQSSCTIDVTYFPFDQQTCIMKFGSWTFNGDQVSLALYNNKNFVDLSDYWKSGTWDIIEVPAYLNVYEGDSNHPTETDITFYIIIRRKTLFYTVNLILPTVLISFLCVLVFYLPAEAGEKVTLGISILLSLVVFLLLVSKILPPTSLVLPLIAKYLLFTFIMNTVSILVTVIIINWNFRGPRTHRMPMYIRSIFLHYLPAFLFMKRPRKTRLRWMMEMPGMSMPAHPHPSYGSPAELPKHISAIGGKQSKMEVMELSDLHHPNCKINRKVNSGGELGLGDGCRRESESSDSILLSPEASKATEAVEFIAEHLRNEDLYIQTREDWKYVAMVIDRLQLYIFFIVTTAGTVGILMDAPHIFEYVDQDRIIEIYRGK
The experiment in a line: cell-based. Set-up: species or system Xenopus laevis oocytes. The conditions noted are these: Oocyte.

With `CN/C(=N\[N+](=O)[O-])NCc1cnc(Cl)s1` [clothianidin], the results for the Emax in assay [1] (read-out: Clothianidin / Imax) and in assay [2] (read-out: Clothianidin / Imax) were 75.9 ± 1.8% and 29.6 ± 1.3%, respectively.
On to `O=[N+]([O-])NC1=NCCN1Cc1ccc(Cl)nc1` [imidacloprid], for which the Emax in assay [1] (read-out: Imidacloprid / Imax) is 10.7 ± 1%; in assay [2] (read-out: Imidacloprid / Imax), 11.2 ± 0.9%.
As for `N#C/N=C1\SCCN1Cc1ccc(Cl)nc1` [thiacloprid], the figures for the Emax in assay [1] (read-out: Thiacloprid / Imax) and in assay [2] (read-out: Thiacloprid / Imax) were 9.4 ± 0.8% and 6.5 ± 0.5%, respectively.
